# Experimental data published in patent US10676499B2, “3′ end caps, 5′ end caps and combinations thereof for therapeutic RNA” (NOVARTIS AG, priority 2014, dated 2020).
# Molecular target: eIF4E (Homo sapiens (Human), UniProt P06730)
# Test: TR-FRET assay for competitive binding of cap analogs to eIF4E
# Details: N7-alkylated GDP derivatives; single measurement unless noted (a = average over 2 measurements); read-out: AC50/μM
# From the text: His tagged eIF4E protein was purchased from Fitzgerald Industries International (80R-125; Acton, Mass.) and tRNA was purchased from SIGMA (R5636; St. Louis, Mo.). A biotinylated 20 nucleotide RNA oligo (5′Phos/rGrGrA rCrCrC rCrUrC rUrCrC rCrUrC rCrCrC rCrC biotin-3′) was purchased from Integrated DNA Technologies (Coralville, Iowa). Europium labelled anti his antibody was purchased from Perkin Elmer (ADOI 10; Waltham, Mass.) and streptavidin conjugated alexa fluor 647 was purchased from Life Technologies (S32357; Grand Island, N.Y.).
# The TR-FRET assay was performed in an assay buffer of PBS (pH 7.4), 0.02% Tween, and 0.1% BSA using four separate addition steps. Initially, 5 μl of His-eIF4E (10 nM) and tRNA (0.1 mg/ml) were added into a black walled 384 well small volume plate. Next, 1 al/well of freshly diluted compound was added using the Beckman Coulter Biomek FX liquid dispenser with a final DMSO concentration of 1%. The compound and eIF4E were allowed to bind for 15 minutes at room temperature. The third addition consisted of adding 4 μl of chemically capped 7mGDP imidazole mRNA-biotin (10 nM) into every well, with the exception of one column containing only buffer to use as a background control. The binding reaction was incubated for one hour at room temperature. Finally, 5 al of the europium-labeled anti-His antibody (10 nM) and streptavidin conjugated alexa fluor 647 (10 nM) TR-FRET detection reagents were added to each well and allowed to incubate at room temperature protected from light for 1 h. The plates were read on the Envision plate reader (Perkin-Elmer) to measure signals from both the Alexa fluor (665 nm) and the europium (615 nm). A ratio of the alexa fluor and europium fluorescence as a function of cap analog concentration was calculated for data analysis and data were fit to a standard EC50 inhibition curve in Graph Pad.
# Chain of eIF4E (P06730 whole entry): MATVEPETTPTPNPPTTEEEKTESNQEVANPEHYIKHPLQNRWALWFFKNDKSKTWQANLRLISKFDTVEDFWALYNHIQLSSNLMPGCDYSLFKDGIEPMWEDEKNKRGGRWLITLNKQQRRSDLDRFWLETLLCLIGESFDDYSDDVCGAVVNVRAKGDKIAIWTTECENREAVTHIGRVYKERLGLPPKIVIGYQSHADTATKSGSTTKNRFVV
row,AC50 [µM],SMILES
1,47.1,Nc1nc([O-])c2c(n1)n([C@@H]1O[C@H](COP(=O)(O)OP(=O)(O)O)[C@@H](O)[C@H]1O)c[n+]2C(c1ccccc1)c1ccccc1 [Example 16]

# Same assay, conditions: N^7-alkylated GMP derivatives; competition with capped 7mGDP mRNA-biotin; single measurement unless footnoted as average; read-out: AC50
row,SMILES,AC50 [µM]
1,CCc1ccc(-c2cccs2)nc1 [Example 66],5.91
2,CCc1nc2ccccc2s1 [Example 68],52.9
3,CCc1cc2ccccc2s1 [Example 69],63.2
4,CCc1nc2ccccc2n1C [Example 71],> 100
5,CCc1cccc2c1cnn2C [Example 72],> 100
6,CCc1ccc2cnn(C)c2c1 [Example 73],> 100
7,CCc1ccc2c(cnn2C)c1 [Example 74],> 100

# Next, values leading:
row,AC50 [µM],SMILES
1,> 100,CCc1ccc(-c2ccc(C(C)=O)cc2)cc1 [Example 60]
2,16.7,CCc1ccc(-c2nc(C)no2)cc1 [Example 61]
3,> 100,CCc1ccc(-c2ccccc2OC)cc1 [Example 62]
4,> 100,CCc1ccc(-c2noc(C)n2)cc1 [Example 63]
5,> 100,CCc1ncc(-c2ccc(F)cc2)o1 [Example 64]
6,29,CCc1ccc(-c2ccccc2)cc1 [Example 65]
7,2.69,CCc1ccc(-c2ccsc2)cc1 [Example 67]
8,23.7,CCc1ccc2nonc2c1 [Example 70]
